According to patent publication US20050059615A1, “Transmucosal dosage forms for brain-targeted steroid chemical delivery systems” (priority 2003, published 2005):

Columns and labels:
[1] = tested on: ovariectomized female rats; experiment: Lordosis quotient, female rat sexual behavior after ovariectomy; format: in vivo, Sprague Dawley rats
Method: Adult female Sprague Dawley rats (220-250 g) from Charles River Hungary Ltd., Godollo, Hungary, were used. Animals were kept in community cages (4 animals/cage) in a climate-controlled room (23∀2EC, 50-60% humidity), with a 14 hour light, 10 hour dark cycle of artificial lighting, using reversed light/dark cycle. Food and water were available ad libitum.
After a minimum five-day acclimatization period, animals were ovariectomized under ether anesthesia, then were left to recover for 3 weeks before testing (reconvalescence). All animals were treated in accordance with the guidelines of the European Communities Council Directive (86/609/EEC) and studies were permitted by the Institutional Animal Care Commission.
Estradiol benzoate and progesterone were obtained from Sigma Chemical Co. Inc., Budapest, Hungary. 2-Hydroxypropyl-β-cyclodextrin was purchased from Cerestar Inc., Hammond, Ind., US. […] E2-CDS as a 3% complex with HPβCD (E2-CDS-CD) was dissolved in distilled water and diluted with 27% HPβCD solution. E2-CDS-CD was synthesized by Alchem Laboratories Corporation, Alachua, Fla., US, using the procedure of Example 2 above.
(§1) After recovery from surgery, ovariectomized female rats were divided into four groups and treated once a day for five days intravenously, via a bolus injection through the tail vein, as follows: (1) control, 27% HPβCD solution; (2) 0.003 mg/kg E2-CDS dissolved in 27% HPβCD solution; (3) 0.01 mg/kg E2-CDS dissolved in 27% HPβCD solution; and (4) 0.03 mg/kg E2-CDS dissolved in 27% HPβCD solution. A minimal number of ovariectomized (8 to 12) females were used per group. Intravenous treatments either with E2-CDS or HPβCD (controls) were carried out daily for 5 days beginning 2 days prior to the first day of behavior observations, in a volume of 0.05 mL/100 g body weight.
The behavior test was conducted in a plexiglass observation cage during the dark cycle. During behavioral observations, only a dim red light was on.
(§2) An experienced and active male rat was placed in the arena 5 minutes prior to the female. […] The lordosis quotient (LQ) expresses the estrogen effect on sexual receptivity and was calculated as follows: LQ=100×number of lordoses/10 mounts The observation of the sexual behavior of each female was carried out, in the case of E2-CDS, every day for 22 days; in the case of EB, investigations were carried out every day for 10 days. […] Citrated blood samples were taken by retro-orbital sinus puncture under light ether anesthesia. The samples were stored at 4EC for one hour, then centrifuged at 1000 g for 10 minutes. Plasma was separated and stored at −80EC until assayed. Plasma LH concentrations from individual samples were measured by double antibody radioimmunoassay kits obtained from Amersham Pharmacia Biotech, Rome, Italy. […] The limit of detection was 15 pg/mL.
(§3) Behavioral changes were analyzed using the Mann-Whitney U test (Siegel, Nonparametric Statistics for the Behavioral Sciences, New York; McGraw-Hill Book Company, Inc., 1956). The Fisher exact test was used for percentage comparisons (Zar, Biostatistical Analysis, Prentice Hall, Inc., Englewood Cliffs, N.J., 1974). Serum LH data were analyzed for each time and treatment group by analysis of variance (ANOVA) followed by Bonferroni posthoc test.

LH = experiment: Plasma LH in ovariectomized female rats (radioimmunoassay); format: in vivo, Sprague Dawley rats; settings: all dosage levels tested: 0.003, 0.01 and 0.03 mg/kg i.v. daily for 5 days
Method: as §1, §2, §3

ACTH = experiment: Suppression of stress-induced elevation of plasma ACTH (light restraint stress); format: in vivo, Sprague-Dawley rats
Method: (§4) Ability to suppress stress-induced ACTH and corticosterone is a measure of the anti-inflammatory action of a test substance.
(§5) Adult male Sprague-Dawley rats (Charles River Breeding Laboratories, Wilmington, Mass.) weighing 300-325 grams were selected for use in this study. The rats were housed individually in wire-bottomed cages in a climate-controlled room (23° C.) with a 12 hour light/12 hour dark cycle of artificial lighting. The animals were maintained on this light cycle for 10 days prior to the start of the experiment. Purina cat chow and tap water were provided ad libitum.
(§6) Rats then were subjected to either no stress or light restraint stress for 5 or 15 minutes on days 0, 1, 3, 5 or 7. Each experimental group consisted of six animals. For light restraint testing, the rats were placed in individual wire-mesh cages which permitted limited movement in a lateral or longitudinal direction. Nonstressed control rats were gently removed from their cages and immediately sacrificed. All animals were killed immediately at the end of the stress periods by decapitation. Trunk blood was rapidly collected in iced tubes containing EDTA, and the plasma was separated by cold centrifugation and stored at −80° C. until radioimmunoassay.
Plasma ACTH was measured in duplicate by radioimmunoassay using a double-antibody technique (Diagnostic Products Corp., Los Angeles, Calif.). The intra-assay coefficient of variation was 8.25%; and the limit of sensitivity for the assay was 17 pg/mL of plasma.
(§7) The significance of differences among mean values was determined by analysis of variance (Anova) and Student-Newman-Keuls tests. The level of probability for all tests was 0.05.

corticosterone = experiment: Suppression of stress-induced elevation of corticosterone (15-minute restraint stress); format: in vivo, Sprague-Dawley rats; settings: 15-minute stress
Method: as §4, §5, §6
Plasma corticosterone was measured in duplicate by radioimmunoassay using a double-antibody technique (Cambridge Medical Tech., Inc., Billerica, Mass.). The intra-assay coefficient of variation was <2.63% and the interassay coefficient of variation was 7.1%. The limit of sensitivity for the assay was 0.39 ng/mL of plasma.
as §7

[2] = 0.003 mg/kg i.v. once a day for 5 days
[3] = 0.01 mg/kg i.v. once a day for 5 days
[4] = 0.03 mg/kg i.v. once a day for 5 days

C[C@]12CC[C@@H]3c4ccc(OC(=O)c5ccccc5)cc4CC[C@H]3[C@@H]1CC[C@@H]2O [estradiol benzoate, reference compound]
effect on lordosis quotient [1, 2]: slightly enhanced
period of the LQ effect [1, 2]: 3 to 7 days
statistical significance of LQ effect [1, 2]: not statistically significant
effect on lordosis quotient LQ [1, 3]: slightly increased
period of the LQ effect [1, 3]: day 3 to day 10
statistical significance of LQ effect [1, 3]: not statistically significant
effect on lordosis quotient LQ [1, 4]: significantly enhanced
maximal value of lordosis quotient (LQ) [1, 4]: 27.3
period over which the LQ effect lasted [1, 4]: day 3 to day 8
effect on plasma LH levels (LH): none of the tested dosages of estradiol benzoate gave statistically significant LH suppression

C[C@@H]1C[C@H]2[C@@H]3CCC4=CC(=O)C=C[C@]4(C)[C@@]3(F)[C@@H](O)C[C@]2(C)[C@@]1(O)C(=O)COC(=O)C1=CN(C)C=CC1 [DEX-CDS, 9-fluoro-11β,17-dihydroxy-16α-methyl-21-{[(1-methyl-1,4-dihydropyridin-3-yl)carbonyl]oxy}pregna-1,4-diene-3,20-dione]
effect on stress-related elevations in ACTH (ACTH; 5-minute stress, days 1 and 3, single i.v. DEX-CDS 10 mg/kg or DEX 7.65 mg/kg (equimolar)): blocked
day through which suppression of ACTH elevations continued (ACTH; 5-minute stress, single i.v. DEX-CDS 10 mg/kg): 5 days
effect on stress-related rises in ACTH (ACTH; 15-minute stress, day 3, single i.v. DEX-CDS 10 mg/kg or DEX 7.65 mg/kg): blocked
duration of suppression of elevations in ACTH (ACTH; 15-minute stress, single i.v. DEX-CDS 10 mg/kg): at least 7 days
suppression of corticosterone response to stress (corticosterone; day 3, single i.v. DEX-CDS 10 mg/kg or DEX 7.65 mg/kg): 33%
suppression of corticosterone response to stress (corticosterone; day 5, single i.v. DEX-CDS 10 mg/kg): 37%
suppression of corticosterone response to stress (corticosterone; day 7, single i.v. DEX-CDS 10 mg/kg): 56%
